Experimental data taken from patent publication US20150045313A1, “Ectoparasiticidal Methods and Formulations” (Eli Lilly and Company, priority 2009, published 2015).

How the values were obtained:
[1] = system: Horn Fly (Haematobia irritans); test: Cattle Ectoparasiticide Test, pour-on or spray against horn flies; assay type: in vivo
Description: Cattle Ectoparasiticide Test (CET)/Horn Fly (Haematobia irritans) and/or Adult Tick (Amblyomma americanum): Cattle are housed in environmentally controlled rooms, 1 or 2 animals per room that have screened doors and ventilation system to prevent fly escape. Following treatment application, a defined number of horn flies are released into each room (typically at or above economic threshold of 200 flies per animal). After defined periods of time, the numbers of live horn flies remaining on animals are enumerated. If a combination horn fly and tick experiment is conducted, adult lone star ticks are placed into surgical stockinette enclosures that are glued onto the backs of cattle. Cattle are restrained in a modified head gate within environmentally controlled rooms. Horn flies may be enumerated, followed by determination of the numbers of dead ticks inside of containment units. Typically there are 2 containment units per animal and at least 2 animals per treatment group.
B) Therapeutic and residual efficacy testing of spinetoram and Elector against horn flies when applied topically to cattle as a pour-on or topical spray. Spinetoram (120 g/L), Elector (25 g/L spinosad) as described previously were used. Test material was applied to animals as either a whole-body topical spray or neat pour-on. Spinetoram was diluted in water to 25 g/L prior to application as a pour-on. Both materials were diluted in water to 0.04% (400 ppm) for application as a whole-body spray in a total volume of 1 L per animal. There were a total of six animals per treatment group (n=6) plus six negative control animals. Beef and dairy cattle were used. Following treatments, horn flies were released into rooms harboring cattle. Live flies were enumerated 24 h following challenges.

Boophilus annulatus = test: Whole-body spray treatment of Boophilus annulatus infestations on cattle; assay type: in vivo
Protocol: C) Efficacy Testing and comparison of topically applied spinetoram with spinosad for the treatment of Boophilus annulatus infestations on cattle. Technical spinetoram and technical spinosad both formulated as 25 g/L suspension concentrate formulations similar to commercial Elector. Stability assays (HPLC and LPT bioassays) were conducted to confirm potency over extended periods of time (5 weeks) at cool and shelf-temperatures. Cattle were pre-infested 21 d prior to treatment with larval-stage B. annulatus ticks resulting the presence of very high numbers of all three life-stages of this tick at the time of treatment. Test materials were diluted to 0.025% (250 ppm) and applied to cattle as whole-body topical sprays in a volume of 10 L per animal. There were a total of six animals per treatment group (n=6). Animals were housed in covered stalls under ambient conditions of temperature and humidity. Engorged, detached adult female ticks were retrieved from animals in each stall on a daily basis. Egg masses were weighed and eggs were set for hatching to assess viability. Efficacy was measured in terms of total numbers of female ticks per animal and index of fecundity (IF).
Means were tested by General Linear Model (GLM), 1-way ANOVA. Differences (P<0.05) among means were separated using Tukey's all pairwise comparison. Means within the same column followed by different letters were significant at the P<0.05 level.
Means were tested by General Linear Model (GLM), 2-way ANOVA with parasitic life stage and treatment group as main effects. NS denotes not significant.

Cat Flea = test: Flea Contact Assay (FCA)
Protocol: Flea Contact Assay (FCA)/Cat Flea: Test material is formulated in acetone at the desired exposure concentration and doubling dilutions performed to obtain a total of 10 testing levels. Approximately 0.05 ml of formulated material is dispensed into the bottom of a test tube containing a small amount of dog hair. Acetone is allowed to evaporate under a fume hood overnight. Approximately 10 mixed-sex adult cat flea are anesthetized using carbon dioxide and dispensed into each tube. Tubes are sealed using a ventilated plastic cap and incubated at 27° C. and 75-80% relative humidity. […] Nonlinear regression is used to model dose-mortality relationship and obtain relative potency (LD50) data compared to contemporaneous controls (acetone-only or fipronil).

Lone Star Tick = test: Larval Packet Test (LPT)
Protocol: Larval Packet Test (LPT)/Ticks: Test material is formulated in a 2:1 ratio of trichloroethylene: olive oil. Tissue biopsy bags are saturated with 1 ml of formulated material (n=3 per test level), and bags are allowed to dry under a fume hood for at least 2 hours. Approximately 50-100 larval-stage ticks are placed into each bag, and the bag is sealed using a plastic dialysis clip and incubated for 24 h at 27° C. and 95% relative humidity. Bags are then opened, and live/dead ticks are enumerated. Nonlinear regression is used to model dose-mortality relationship and obtain relative potency (LD50) data compared to contemporaneous controls (solvent-only or fipronil).

[2] = system: ticks (Amblyomma americanum); test: Surrogate Animal bioassay, topical exposure on rats; assay type: in vivo; conditions: formulated in ethanol, 48 h
Protocol: Surrogate Animal bioassay/ticks(Amblyomma americanum) and fleas:
Topical exposure—Test materials are formulated in ethanol or acetone at the desired testing concentrations, typically 6% active ingredient or lower. Either doubling or log-dilutions are performed in ethanol to obtain additional testing concentrations (3.0, 0.3, 0.03, and 0.003 mg/cm^3). A tick containment unit is affixed to the back or adult male or female rats, and 0.05 ml of formulated test material is applied topically to the surface area inside of the containment unit. Materials are allowed to dry overnight, after which time 10 unfed dog tick nymphs are placed into each containment unit. A total of 5 rats are normally used for each test concentration. Ticks are allowed to attach and feed on treated animals for 48 h, after which time containment units are opened and live/dead ticks are enumerated. Rats may be co-infested with adult cat fleas at the time of tick infestation to obtain data for topical insecticide activity using the same animal.

[3] = cattle, 0.025% AI whole-body spray, mean ± SD

Substance: Spinetoram
- GM percent horn fly reduction after 24 hrs, Pour-on ([1]; cattle, pour-on 2 mg/kg, Initial): 100%
- GM percent horn fly reduction after 24 hrs, Spray ([1]; cattle, whole-body spray 0.04% AI, Initial): 99.9%
- therapeutic efficacy compared with Elector ([1]; horn fly infested cattle, pour-on (2 mg/kg) or whole-body spray (0.04% AI)): equivalent therapeutic efficacy
- initial/knockdown activity against B. annulatus (Boophilus annulatus; cattle, 0.025% AI): poor
- Number ♀♀ Ticks per Calf (Boophilus annulatus; [3]): 2405 ± 306 a
- Total Index of Fecundity (IF) (Boophilus annulatus; [3]): 287 ± 35.4 a
- Percentage Control of the IF (Boophilus annulatus; cattle, 0.025% AI whole-body spray, therapeutic efficacy): 28.0 ± 8.9 a %
- Percentage control, Adult (Boophilus annulatus; parasitic life stage adult, 0.025% AI): 17.2 ± 25.0%
- Percentage control, Larval (Boophilus annulatus; parasitic life stage larva, 0.025% AI): 38.6 ± 10.6%
- Percentage control, Nymph (Boophilus annulatus; parasitic life stage nymph, 0.025% AI): 31.6 ± 20.8%
- residual efficacy, mean percentage control of the IF, Week 1 (Boophilus annulatus; ticks infested as larvae Week 1 after treatment): 95.3 ± 3.3%
- residual efficacy, mean percentage control of the IF, Week 2 (Boophilus annulatus; ticks infested as larvae Week 2 after treatment): 96.7 ± 2.3%
- residual efficacy, mean percentage control of the IF, Week 3 (Boophilus annulatus; ticks infested as larvae Week 3 after treatment): 89.3 ± 8.0%
- residual efficacy, mean percentage control of the IF, Week 4 (Boophilus annulatus; ticks infested as larvae Week 4 after treatment): 80.4 ± 11.5%
- Potency (EC50 ng/cm^2) 24 h (Cat Flea; Cat Flea, 24 h): 1.292 ng/cm^2
- Spinetoram: Spinosad Potency Ratio 24 h (Cat Flea; Cat Flea, 24 h): 2.4
- Potency (EC50 ng/cm^2) 48 h (Cat Flea; Cat Flea, 48 h): 0.6238 ng/cm^2
- Spinetoram: Spinosad Potency Ratio 48 h (Cat Flea; Cat Flea, 48 h): 2.4
- times more potent than spinosad in vitro (Cat Flea; adult cat fleas, time not stated): 2.4 times
- Spinetoram/Spinosad Potency Ratio (Lone Star Tick; Lone Star Tick): 0.4
- Potency (EC50) (Lone Star Tick; Lone Star Tick larvae, 24 h): 531.6 ppm
- topical activity against tick nymphs compared to spinosad [2]: equivalent to that of spinosad
